Patent publication US12338244B2, “Temozolomide compounds, polymers prepared therefrom, and method of treating a disease” (University of Massachusetts, priority 2016, dated 2025)

Tests used:
[1] = Stability of TMZ in organic solvents by UV-Vis spectroscopy; type: physicochemical; conditions: 0.01 mg/ml in 1:1 MeOH:DMSO
Method: This observation prompted investigation of the stability of TMZ in organic solvents, a property not previously reported to our knowledge. Solutions of TMZ (0.01 milligram per milliliter concentration) in 1:1 MeOH:DMSO, DMSO, ACN, and 2,2,2-trifluoroethanol (TFE) were incubated at room temperature, as well as elevated temperatures (e.g., 50° C. and 70° C.). […] The marked difference in stability of TMZ observed between MeOH and TFE was attributed to the poor nucleophilicity of the latter, which precludes rapid imidazotetrazine solvolysis.

U87MG cells = experiment: CellTiter-Glo luminescent cell viability assay, cytotoxic effects on glioblastoma cell line; type: cell-based; conditions: Homo sapiens, U-87 MG, 168 h; U87MG (TMZ sensitive) cells, Day 7, doses 0-10000 μM
Method: Testing of the cytotoxic effects of polyMPC-TMZ on glioblastoma (GBM) cell lines utilized U87MG (TMZ sensitive cell line) and T98G (TMZ-resistant cell line). […] U87MG cells were plated on 96 well plates and cultured overnight in DMEM media containing 10% FBS at 37° C. in a CO2 incubator. The cells were treated with different doses of TMZ (0-10000 μM), polyMPC-TMZ-17% (random copolymer with 17 mole percent TMZ monomer) (0-10000 μM), polyMPC-TMZ-26% (random copolymer with 26% TMZ monomer) (0-10000 μM), polyMPC-TMZ-33% (random copolymer with 33% TMZ monomer) (0-10000 μM) or polyMPC-TMZ-50% random copolymer with 50 mole percent TMZ monomer) (0-10000 μM) and cell viability was tested on Day 7 using the CellTiter-Glo luminescent cell viability assay purchased from Promega, Inc. PolyMPC itself was used as a control polymer. […] All of the polyMPC-TMZ conjugates were efficacious, with a modified toxicity response as is typical of polymer prodrugs which mask the toxicity of the drug prior to making them available to the tumor. […] The higher IC50 values of polyMPC-TMZ will allow for introduction of larger drug doses in in vivo experiments.

Cn1nnc2c(C(N)=O)ncn2c1=O [TMZ, Temozolomide]
degradation in MeOH:DMSO mixture, heated ([1]; 50° C. or 70° C., after 1 hour): fully degraded
degradation in MeOH:DMSO mixture, room temperature ([1]; room temperature): significant degradation
IC50 (U87MG cells): ~192 µM
